Results: US6403125B1, “Utilization of an extract of a plant of the Cecropia genus” (Cognis France (Societe Anonyme), priority 1998, dated 2002)

System: human adipocytes
Experiment: Lipolysis activation on human adipocytes in vitro (glycerin release)
Assay type: cell-based
Conditions: 90 minutes at 37° C.
Excerpt: I. Evidence of the Lipolysis Activation Effect on Human Adipocytes in “in vitro” Survival The test used to emphasise the lipolysis activation of human adipocytes in the presence of Cecropia extracts, which are the subject of the present invention, is described below. Lipolysis is removal of triglycerides (or TG) stored in the adipocytes by a hormone-sensitive enzyme, triglyceride lipase (or TGL) which splits the TG into free fatty acids and glycerin which are removed in the blood circulation. The fatty acids can then be absorbed by the muscle cells to produce energy. 1) Principle of the in vitro Test Activation of lipolysis is evaluated by spectrophotometric metering of the rate of glycerin salted out by adipocytes, incubated “in vitro” with the substance to be tested present. The adipocytes are isolated by enzymatic digestion of subcutaneous human tissue by the so-called Rodbell method (see M. Rodbell: “Metabolism of isolated fat cells”. The journal of biological chemistry, Vol. 239, No. 2, pages 375 to 380, 1964). […] 3) Quantisation of the Lipolysis The rate of salted-out glycerin is quantified by spectrophotometry in the medium of the material which floats on the surface by the method described by C. […] The results are expressed as mean values of the activation percentage relative to a proof mass batch (without Cecropia extract).

| Compound | % activation of the lipolysis relative to the proof mass without extract (mean) (1 mM) | % activation of the lipolysis relative to the proof mass without extract (mean) (0.1 μM) |
| --- | --- | --- |
| Cn1c(=O)c2[nH]cnc2n(C)c1=O [Theophylline, theophylline] | + 70% | – |
| CC(C)NCC(O)c1ccc(O)c(O)c1 (centres unmarked) [Isoprenaline, isoprenaline] | – | + 45% |
